Data as given in the supplement of paper PMC11208160.

Experiment: recombinant barcode read abundance after kanamycin selection (control-corrected) (log10(CPM+1)); higher = more efficient recombination; sequences stand for … in AGTGCAGAGAAAATCGGCCAGTTTTCTCTGCCTGCAGTCCGCATGCCGT…ATTTATGCAGCGGACTGCCTTTCTCCCAAAGTGATAAACCGGACAGTATCATGGACCGGTTTTCCCGGTAATCCGTATTTGCAAGGTTGGTTTCACT; site = the 11-nt target
In short: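 IS621 bridge RNA target-binding loops were paired with targets in a pooled library tested in E. coli. After co-electroporation with a donor plasmid, cells were plated in two replicates on chloramphenicol/ampicillin LB agar (control) and on chloramphenicol/ampicillin/kanamycin carrying 0.1 mM IPTG. Barcodes at recombinant junctions were counted as counts per million, averaged and control-corrected to give recombination efficiency. Values are log10(CPM+1).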

Row | Sequence | recombinant barcode read abundance (log10)
1 | TCGCGACCTTGGGTTCTAACCTGTTGCCGCT [TCGCGACCTCG_LTGcore_CT_RTGcore_AG] (site TCGCGACCTCG) (LTG core: CT, RTG core: AG) | 0.0581
2 | TCGCGACCTTGGGTTCTAACCTGTTGCCGGG [TCGCGACCTCG_LTGcore_CT_RTGcore_CC] (site TCGCGACCTCG) (LTG core: CT, RTG core: CC) | 0.283
3 | TCGCGACCTTGGGTTCTAACCTGTTGCCGGT [TCGCGACCTCG_LTGcore_CT_RTGcore_AC] (site TCGCGACCTCG) (LTG core: CT, RTG core: AC) | 0.129
4 | TCGCGACCTTGGGTTCTAACCTGTTGCCGTC [TCGCGACCTCG_LTGcore_CT_RTGcore_GA] (site TCGCGACCTCG) (LTG core: CT, RTG core: GA) | 0.204
5 | TCGCGACGATGGGTTCTAACCTGTTGCCGAG [TCGCGACCTCG_LTGcore_GA_RTGcore_CT] (site TCGCGACCTCG) (LTG core: GA, RTG core: CT) | 0.241
6 | TCGCGACGATGGGTTCTAACCTGTTGCCGTC [TCGCGACCTCG_LTGcore_GA_RTGcore_GA] (site TCGCGACCTCG) (LTG core: GA, RTG core: GA) | 0.123
7 | TCGCGACGCTGGGTTCTAACCTGTTGCCGAG [TCGCGACCTCG_LTGcore_GC_RTGcore_CT] (site TCGCGACCTCG) (LTG core: GC, RTG core: CT) | 0.235
8 | TCGCGACGTTGGGTTCTAACCTGTTGCCGAC [TCGCGACCTCG_LTGcore_GT_RTGcore_GT] (site TCGCGACCTCG) (LTG core: GT, RTG core: GT) | 0.0448
9 | TCGCGACTATGGGTTCTAACCTGTTGCCGAG [TCGCGACCTCG_LTGcore_TA_RTGcore_CT] (site TCGCGACCTCG) (LTG core: TA, RTG core: CT) | 0.0865
10 | TCGCGACTGTGGGTTCTAACCTGTTGCCGCA [TCGCGACCTCG_LTGcore_TG_RTGcore_TG] (site TCGCGACCTCG) (LTG core: TG, RTG core: TG) | 0.419
11 | TCTACCCAATGGGTTCTAACCTGTTGCTGTT [TCTACCCCTCA_LTGcore_AA_RTGcore_AA] (site TCTACCCCTCA) (LTG core: AA, RTG core: AA) | 0.186
12 | TCTACCCATTGGGTTCTAACCTGTTGCTGAG [TCTACCCCTCA_LTGcore_AT_RTGcore_CT] (site TCTACCCCTCA) (LTG core: AT, RTG core: CT) | 0.331
13 | TCTACCCCATGGGTTCTAACCTGTTGCTGTG [TCTACCCCTCA_LTGcore_CA_RTGcore_CA] (site TCTACCCCTCA) (LTG core: CA, RTG core: CA) | 0.0357
14 | TCTACCCCGTGGGTTCTAACCTGTTGCTGAG [TCTACCCCTCA_LTGcore_CG_RTGcore_CT] (site TCTACCCCTCA) (LTG core: CG, RTG core: CT) | 0.0746
15 | TCTACCCCGTGGGTTCTAACCTGTTGCTGCG [TCTACCCCTCA_LTGcore_CG_RTGcore_CG] (site TCTACCCCTCA) (LTG core: CG, RTG core: CG) | 0.0225
16 | TCTACCCCTTGGGTTCTAACCTGTTGCTGAC [TCTACCCCTCA_LTGcore_CT_RTGcore_GT] (site TCTACCCCTCA) (LTG core: CT, RTG core: GT) | 0.169
17 | TCTACCCCTTGGGTTCTAACCTGTTGCTGCG [TCTACCCCTCA_LTGcore_CT_RTGcore_CG] (site TCTACCCCTCA) (LTG core: CT, RTG core: CG) | 0.0367

Row | Sequence | recombinant barcode read abundance (log10)
18 | TCTACCCCTTGGGTTCTAACCTGTTGCTGCT [TCTACCCCTCA_LTGcore_CT_RTGcore_AG] (site TCTACCCCTCA) (LTG core: CT, RTG core: AG) | 0.0324
19 | TCTACCCCTTGGGTTCTAACCTGTTGCTGGT [TCTACCCCTCA_LTGcore_CT_RTGcore_AC] (site TCTACCCCTCA) (LTG core: CT, RTG core: AC) | 0.0498
20 | TCTACCCCTTGGGTTCTAACCTGTTGCTGTC [TCTACCCCTCA_LTGcore_CT_RTGcore_GA] (site TCTACCCCTCA) (LTG core: CT, RTG core: GA) | 0.0329
21 | TCTACCCCTTGGGTTCTAACCTGTTGCTGTT [TCTACCCCTCA_LTGcore_CT_RTGcore_AA] (site TCTACCCCTCA) (LTG core: CT, RTG core: AA) | 0.07
22 | TCTACCCGATGGGTTCTAACCTGTTGCTGTC [TCTACCCCTCA_LTGcore_GA_RTGcore_GA] (site TCTACCCCTCA) (LTG core: GA, RTG core: GA) | 0.0498
23 | TCTACCCGGTGGGTTCTAACCTGTTGCTGAG [TCTACCCCTCA_LTGcore_GG_RTGcore_CT] (site TCTACCCCTCA) (LTG core: GG, RTG core: CT) | 0.0172
24 | TCTACCCTATGGGTTCTAACCTGTTGCTGAG [TCTACCCCTCA_LTGcore_TA_RTGcore_CT] (site TCTACCCCTCA) (LTG core: TA, RTG core: CT) | 0.0453
25 | TGATACCAATGGGTTCTAACCTGTTGCGTAG [TGATACCCTAC_LTGcore_AA_RTGcore_CT] (site TGATACCCTAC) (LTG core: AA, RTG core: CT) | 0.143
26 | TGATACCACTGGGTTCTAACCTGTTGCGTAG [TGATACCCTAC_LTGcore_AC_RTGcore_CT] (site TGATACCCTAC) (LTG core: AC, RTG core: CT) | 0.135
27 | TGATACCCTTGGGTTCTAACCTGTTGCGTCC [TGATACCCTAC_LTGcore_CT_RTGcore_GG] (site TGATACCCTAC) (LTG core: CT, RTG core: GG) | 0.629
28 | TGATACCCTTGGGTTCTAACCTGTTGCGTCG [TGATACCCTAC_LTGcore_CT_RTGcore_CG] (site TGATACCCTAC) (LTG core: CT, RTG core: CG) | 0.0319
29 | TGATACCCTTGGGTTCTAACCTGTTGCGTCT [TGATACCCTAC_LTGcore_CT_RTGcore_AG] (site TGATACCCTAC) (LTG core: CT, RTG core: AG) | 0.133
30 | TGATACCCTTGGGTTCTAACCTGTTGCGTGA [TGATACCCTAC_LTGcore_CT_RTGcore_TC] (site TGATACCCTAC) (LTG core: CT, RTG core: TC) | 0.864
31 | TGATACCCTTGGGTTCTAACCTGTTGCGTGG [TGATACCCTAC_LTGcore_CT_RTGcore_CC] (site TGATACCCTAC) (LTG core: CT, RTG core: CC) | 0.651
32 | TGATACCGATGGGTTCTAACCTGTTGCGTAG [TGATACCCTAC_LTGcore_GA_RTGcore_CT] (site TGATACCCTAC) (LTG core: GA, RTG core: CT) | 0.221
33 | TGATACCGTTGGGTTCTAACCTGTTGCGTAC [TGATACCCTAC_LTGcore_GT_RTGcore_GT] (site TGATACCCTAC) (LTG core: GT, RTG core: GT) | 0.0235
34 | TGATACCGTTGGGTTCTAACCTGTTGCGTAG [TGATACCCTAC_LTGcore_GT_RTGcore_CT] (site TGATACCCTAC) (LTG core: GT, RTG core: CT) | 0.236
